Data from patent US20070004660A1, “Synergistic Modulation of Flt3 Kinase Using Alkylquinolines and Alkylquinazolines” (priority 2005, published 2007).

Biological target: T1, wild-type FLT3 receptor (Homo sapiens, UniProt P36888)
T1 construct: host or cells: Baf3 (murine B cell lymphoma line), stably transfected
T1 sequence (P36888 27-993): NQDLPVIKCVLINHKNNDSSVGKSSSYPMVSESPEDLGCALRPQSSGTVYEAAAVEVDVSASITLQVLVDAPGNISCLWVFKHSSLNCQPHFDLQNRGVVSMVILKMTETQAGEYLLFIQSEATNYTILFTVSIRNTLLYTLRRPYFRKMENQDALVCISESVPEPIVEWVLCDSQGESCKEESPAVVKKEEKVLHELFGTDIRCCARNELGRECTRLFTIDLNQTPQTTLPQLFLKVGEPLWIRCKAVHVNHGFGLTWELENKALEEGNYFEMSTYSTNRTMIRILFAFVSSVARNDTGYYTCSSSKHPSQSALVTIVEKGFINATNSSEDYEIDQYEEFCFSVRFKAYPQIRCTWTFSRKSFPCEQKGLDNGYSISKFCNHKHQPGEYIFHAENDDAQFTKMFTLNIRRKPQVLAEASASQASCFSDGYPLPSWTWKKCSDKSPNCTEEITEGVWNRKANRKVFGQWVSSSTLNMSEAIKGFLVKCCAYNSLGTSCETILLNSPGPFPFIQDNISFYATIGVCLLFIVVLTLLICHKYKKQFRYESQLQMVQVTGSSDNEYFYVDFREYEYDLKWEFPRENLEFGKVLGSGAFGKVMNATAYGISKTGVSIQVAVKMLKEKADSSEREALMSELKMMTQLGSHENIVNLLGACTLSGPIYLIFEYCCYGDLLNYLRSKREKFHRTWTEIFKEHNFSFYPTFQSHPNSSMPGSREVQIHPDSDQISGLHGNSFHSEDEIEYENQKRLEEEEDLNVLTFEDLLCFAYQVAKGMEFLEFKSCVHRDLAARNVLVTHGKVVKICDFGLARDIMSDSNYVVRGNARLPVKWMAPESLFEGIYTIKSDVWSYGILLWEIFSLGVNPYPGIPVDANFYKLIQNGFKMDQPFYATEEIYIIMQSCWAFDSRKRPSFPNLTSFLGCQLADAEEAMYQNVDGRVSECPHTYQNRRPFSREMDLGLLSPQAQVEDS
Assay: Cell-based FLT3 receptor ELISA (FLT ligand-induced phosphorylation in Baf3 FLT3 cells)
Settings: 100 ng/mL Flt ligand, uncertainty ±20%
In short: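 Receptor phosphotyrosine measured by sandwich ELISA (anti-FLT3 capture, HRP anti-pTyr, luminescence) in FLT3-transfected murine Baf3 cells given 1 h compound pretreatment and 10 min 100 ng/mL FLT ligand after overnight low-serum starvation; triplicates, IC50 from nonlinear regression.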

IC50 [nM]	Compound
976	COc1cc2ncnc(C3CCN(C(=O)Nc4ccc(C5=CCNCC5)cc4)CC3)c2cc1OC [Example 62, 4-(6,7-Dimethoxy-quinazolin-4-yl)-piperidine-1-carboxylic acid [4-(1,2,3,6-tetrahydro-pyridin-4-yl)-phenyl]-amide]
117	CC(C)Oc1ccc(NC(=O)N2CCC(c3ncnc4cc(OCCCOS(C)(=O)=O)ccc34)CC2)cc1 [Example 121, Methanesulfonic acid 3-{4-[1-(4-isopropoxy-phenylcarbamoyl)-piperidin-4-yl]-quinazolin-7-yloxy}-propyl ester]
279	O=C1CCCN1CCCOc1ccc2c(C3CCN(C(=O)Nc4cnc(N5CCCC5)nc4)CC3)ncnc2c1 [Example 90, 4-{7-[3-(2-Oxo-pyrrolidin-1-yl)-propoxy]-quinazolin-4-yl}-piperidine-1-carboxylic acid (2-pyrrolidin-1-yl-pyrimidin-5-yl)-amide]
8	COc1cc2ncnc(C3CCN(C(=O)Nc4ccc(Oc5ccccc5)cc4)CC3)c2cc1OC [Example 47, 4-(6,7-Dimethoxy-quinazolin-4-yl)-piperidine-1-carboxylic acid (4-phenoxy-phenyl)-amide]
762	COc1cc2ncnc(C3CCN(C(=O)Nc4ccc(C5CCN(C(=O)OC(C)(C)C)CC5)cc4)CC3)c2cc1OC [Example 63, 4-(4-{[4-(6,7-Dimethoxy-quinazolin-4-yl)-piperidine-1-carbonyl]-amino}-phenyl)-piperidine-1-carboxylic acid tert-butyl ester]
25	O=C(Nc1ccc(N2CCOCC2)cc1)N1CCC(c2ncnc3cc(OCCCN4CCN(CCO)CC4)ccc23)CC1 [Example 116, 4-(7-{3-[4-(2-Hydroxy-ethyl)-piperazin-1-yl]-propoxy}-quinazolin-4-yl)-piperidine-1-carboxylic acid (4-morpholin-4-yl-phenyl)-amide]
11	CN1CCC(COc2ccc3c(C4CCN(C(=O)Nc5ccc(N6CCOCC6)cc5)CC4)ncnc3c2)CC1 [Example 94, 4-[7-(1-Methyl-piperidin-4-ylmethoxy)-quinazolin-4-yl]-piperidine-1-carboxylic acid (4-morpholin-4-yl-phenyl)-amide]
381	COc1cc2ncnc(C3CCN(C(=O)Nc4ccc(N5CCCC5=O)cc4)CC3)c2cc1OC [Example 57, 4-(6,7-Dimethoxy-quinazolin-4-yl)-piperidine-1-carboxylic acid [4-(2-oxo-pyrrolidin-1-yl)-phenyl]-amide]
59	CCCCc1ccc(NC(=O)N2CCC(c3ncnc4cc(OC)c(OC)cc34)CC2)cc1 [Example 43, 4-(6,7-Dimethoxy-quinazolin-4-yl)-piperidine-1-carboxylic acid (4-butyl-phenyl)-amide]
23	CS(=O)(=O)NCCCOc1ccc2c(C3CCN(C(=O)Nc4ccc(N5CCOCC5)nc4)CC3)ncnc2c1 [Example 87, 4-[7-(3-Methanesulfonylamino-propoxy)-quinazolin-4-yl]-piperidine-1-carboxylic acid (6-morpholin-4-yl-pyridin-3-yl)-amide]
42	CC(C)Oc1ccc(NC(=O)N2CCC(c3ncnc4ccc(OCCCN5CCCC5=O)cc34)CC2)cc1 [Example 101, 4-{6-[3-(2-Oxo-pyrrolidin-1-yl)-propoxy]-quinazolin-4-yl}-piperidine-1-carboxylic acid (4-isopropoxy-phenyl)-amide]
88	CC(=O)N1CCN(CCCOc2ccc3c(C4CCN(C(=O)Nc5ccc(N6CCOCC6)cc5)CC4)ncnc3c2)CC1 [Example 117, 4-{7-[3-(4-Acetyl-piperazin-1-yl)-propoxy]-quinazolin-4-yl}-piperidine-1-carboxylic acid (4-morpholin-4-yl-phenyl)-amide]
1	CC(C)Oc1ccc(NC(=O)N2CCC(c3ncnc4cc(OCC5CCN(C)CC5)ccc34)CC2)cc1 [Example 93, 4-[7-(1-Methyl-piperidin-4-ylmethoxy)-quinazolin-4-yl]-piperidine-1-carboxylic acid (4-isopropoxy-phenyl)-amide]
23	CN(C)C(=O)N1CCN(CCCOc2ccc3c(C4CCN(C(=O)Nc5ccc(N6CCOCC6)cc5)CC4)ncnc3c2)CC1 [Example 120, 4-(3-{4-[1-(4-Morpholin-4-yl-phenylcarbamoyl)-piperidin-4-yl]-quinazolin-7-yloxy}-propyl)-piperazine-1-carboxylic acid dimethylamide]
28	CN1CCN(CCCOc2ccc3c(C4CCN(C(=O)Nc5ccc(N6CCOCC6)c(F)c5)CC4)ncnc3c2)CC1 [Example 81, 4-{7-[3-(4-Methyl-piperazin-1-yl)-propoxy]-quinazolin-4-yl}-piperidine-1-carboxylic acid (3-fluoro-4-morpholin-4-yl-phenyl)-amide]
79	O=C(NCCCOc1ccc2c(C3CCN(C(=O)Nc4ccc(N5CCCC5)nc4)CC3)ncnc2c1)N1CCOCC1 [Example 112, Morpholine-4-carboxylic acid (3-{4-[1-(6-pyrrolidin-1-yl-pyridin-3-ylcarbamoyl)-piperidin-4-yl]-quinazolin-7-yloxy}-propyl)-amide]
84	O=C(Nc1ccc(N2CCOCC2)cc1)N1CCC(c2ncnc3cc(OCCCN4CCCCC4)ccc23)CC1 [Example 75]
27	COc1cc2ncnc(C3CCN(C(=O)Nc4ccc(-c5ccco5)cc4)CC3)c2cc1OC [Example 59, 4-(6,7-Dimethoxy-quinazolin-4-yl)-piperidine-1-carboxylic acid (4-furan-2-yl-phenyl)-amide]
266	COc1cc2ncnc(C3CCN(C(=O)NC4CCC(C(C)(C)C)CC4)CC3)c2cc1OC (stereo not shown) [Example 54, 4-(6,7-Dimethoxy-quinazolin-4-yl)-piperidine-1-carboxylic acid (4-tert-butyl-cyclohexyl)-amide]
14	CN1CCC(COc2ccc3c(C4CCN(C(=O)Nc5ccc(N6CCCC6)nc5)CC4)ncnc3c2)CC1 [Example 99, 4-[7-(1-Methyl-piperidin-4-ylmethoxy)-quinazolin-4-yl]-piperidine-1-carboxylic acid (6-pyrrolidin-1-yl-pyridin-3-yl)-amide]
27	CCN(CC)CC#Cc1ccc2ncnc(C3CCN(C(=O)Nc4ccc(OC(C)C)cc4)CC3)c2c1 [Example 13, 4-[6-(3-Diethylamino-prop-1-ynyl)-quinazolin-4-yl]-piperidine-1-carboxylic acid (4-isopropoxy-phenyl)-amide]
13	CS(=O)(=O)NCCCOc1ccc2c(C3CCN(C(=O)Nc4ccc(N5CCOCC5)cc4)CC3)ncnc2c1 [Example 66, 4-[7-(3-Methanesulfonylamino-propoxy)-quinazolin-4-yl]-piperidine-1-carboxylic acid (4-morpholin-4-yl-phenyl)-amide]
265	COc1cc2ncnc(C3CCN(C(=O)Nc4ccc(-c5cncnc5)cc4)CC3)c2cc1OC [Example 58, 4-(6,7-Dimethoxy-quinazolin-4-yl)-piperidine-1-carboxylic acid (4-pyrimidin-5-yl-phenyl)-amide]
367	CC(C)c1ccc(NC(=O)N2CCC(c3ncnc4ccccc34)CC2)cc1 [Example 7, 4-Quinazolin-4-yl-piperidine-1-carboxylic acid (4-isopropyl-phenyl)-amide]
29	COc1cc2ncnc(C3CCN(C(=O)Nc4ccc(OC5CCCC5)nc4)CC3)c2cc1OC [Example 69, 4-(6,7-Dimethoxy-quinazolin-4-yl)-piperidine-1-carboxylic acid (6-cyclopentyloxy-pyridin-3-yl)-amide]
1	O=C1CCCN1CCCOc1ccc2c(C3CCN(C(=O)Nc4ccc(N5CCCC5)nc4)CC3)ncnc2c1 [Example 89, 4-{7-[3-(2-Oxo-pyrrolidin-1-yl)-propoxy]-quinazolin-4-yl}-piperidine-1-carboxylic acid (6-pyrrolidin-1-yl-pyridin-3-yl)-amide]
31	COc1cc2ncnc(C3CCN(CC(=O)Nc4ccc(OC(C)C)cc4)CC3)c2cc1OC [Example 10, 2-[4-(6,7-Dimethoxy-quinazolin-4-yl)-piperidin-1-yl]-N-(4-isopropoxy-phenyl)-acetamide]
37	O=C1CCCN1CCOc1ccc2c(C3CCN(C(=O)Nc4ccc(N5CCOCC5)nc4)CC3)ncnc2c1 [Example 83, 4-{7-[2-(2-Oxo-pyrrolidin-1-yl)-ethoxy]-quinazolin-4-yl}-piperidine-1-carboxylic acid (6-morpholin-4-yl-pyridin-3-yl)-amide]
